Values quoted from earlier work, collected in patent US6858221B2, “Intravascular delivery of mycophenolic acid” (Avantec Vascular Corporation, priority 2000, dated 2005).

Tested on: Human SMC
Conditions: dose range 0.1 nM-1 μM, Mohacsi et al. 1997

CO[C@H]1C[C@@H]2CC[C@@H](C)[C@@](O)(O2)C(=O)C(=O)N2CCCC[C@H]2C(=O)O[C@H]([C@H](C)C[C@@H]2CC[C@@H](O)[C@H](OC)C2)CC(=O)[C@H](C)/C=C(\C)[C@@H](O)[C@@H](OC)C(=O)[C@H](C)C[C@H](C)/C=C/C=C/C=C/1C [Rapamycin, rapamycin]
IC50: 1 nM
